What was measured:
[1] = tested on: TP53/CDKN2A^KO GEJ organoids; assay: Average organoid size by phase-contrast imaging; format: cell-based, human; conditions: WEB2086 at various concentrations vs vehicle control (0.1% DMSO)
From the text: (FIG. 4A) mRNA levels of PTAFR in TP53/CDKN2A^KO vs. control GEJ organoids (left) and normal GEJ vs. EAC tissues. (FIG. 4B) Knockdown of PTAFR mRNA by siRNAs in TP53/CDKN2A^KO GEJ organoids. (FIG. 4C) Average organoid size and (E) cell viability determined by phase-contrast imaging and WST1 assays, respectively. (FIG. 4D) Ki67 labeling images and (FIG. 4E) quantification obtained on Day 7. *P<0.05 vs. same-day siCtrl. Scale bar=100 μm. (FIG. 4F-FIG. 4H) Average organoid size and cell viability (H) determined by phase-contrast imaging and WST1 assays, respectively. (FIG. 4G and FIG. 4H) Ki67 labeling images and quantification obtained on Day 10. Scale bar=100 μm. *P<0.05 vs Ctrl-DMSO on the same day; +, P<0.05 vs. WEB 10 μM on the same day; #P<0.05 vs. WEB 15 μM on the same day;
GEJ organoids were established as described in FIG. 1A. Briefly, fresh endoscopic GEJ biopsies were preserved in ice-cold conditioned PBS (PBS containing 10 μM ROCK inhibitor Y27632, 2% (vol/vol) penicillin/streptomycin, and 1× Primocin) until further processing within 24 hours. After washing biopsies with conditioned PBS at least 5 times, samples were minced into fragments <1 mm^3 using microdissecting scissors. […]
Following centrifugation at 400 g at 4° C. for 3 minutes, pelleted cell clusters were resuspended in Matrigel. […] Culture medium was changed once every three days until the organoids were ready to passage.

[2] = tested on: TP53/CDKN2A^KO GEJ organoids; assay: Organoid viability assay (WST-1 assay); format: cell-based, human
Protocol: To quantify metabolically active viable cells, organoids were seeded onto 96-well plates and cultured. At indicated time points, 10 μL per well of Cell Proliferation Reagent WST-1 assay kits were added to the 96-well plates and incubated with organoids for 90 minutes. After incubation, only media was transferred to the wells of a new 96-well plate, which was read at an absorbance of 450 nm by a Thermo Scientific Microplate Reader. All experiments were performed in triplicate.

[3] = target: TP53/CDKN2A^KO GEJ organoids; assay: Ki67 immunofluorescence labeling index; format: cell-based, human; conditions: WEB2086 at various concentrations vs vehicle control (0.1% DMSO); Day 10
Protocol: (§1) Organoid cultures and tissues were fixed overnight in 10% formalin at room temperature. Paraffin-embedded organoids and tissues were serially sectioned into 10-μm slices. Paraffin sections were deparaffinized, rehydrated, followed by either staining for hematoxylin and eosin (H&E), or antigen retrieval in sub-boiling 10-mM sodium citrate buffer pH 6.0 for 10 mins. For immunofluorescence (IF), slides were permeabilized in 0.5% TritonX-100 in PBS and blocked in 1% goat serum in PBS for 30 mins at room temperature. After blocking, slides were incubated with anti-Ki67 (1:200, Abcam) overnight in a humidified chamber at 4° C. Sections were washed by PBST (3 times for 5 mins each) and incubated with Alexa Fluor secondary antibodies (1:500) for 1 hr. After washing with PBST, slides were mounted with Fluoroshied with DAPI (Sigma).

[4] = tested on: TP53/CDKN2A^KO GEJ organoids xenograft; assay: Xenotransplantation of TP53/CDKN2A^KO organoid cells in nude mice; format: in vivo; conditions: 5 mg/kg.d intraperitoneal every two days for 3 weeks; 3-month observation; vs 1.25% DMSO
Protocol: (§2) All procedures and experimental protocols involving mice were approved by the Animal Experimental Committee of the Johns Hopkins University School of Medicine. For xenotransplantation of organoids, 2×10^6 organoid cells or ESO26 cells resuspended in cold 50% Matrigel were injected into the axillary of nude mice. For the WEB2086 treatment assay, 5 mg/kg.d of WEB2086 or vehicle control (1.25% DMSO in PBS) was administered by intraperitoneal injection every two days for 3 weeks. Xenograft size was measured twice a week. The xenograft volume (V) was monitored by measuring the length (L) and width (W) with a caliper based on the formula V=1/2×(L×W^2). Mice were sacrificed at the end of the experiment, and xenografts were excised for further analyses.

[5] = tested on: Eso26 xenograft; assay: Eso26 EAC cell line xenograft in nude mice; format: in vivo
Protocol: as §1
Immunohistochemistry was performed using the automated Bond-Max autostainer by Leica for the following antibodies: AE1/AE3 (1:200, Santa Cruz). Images were acquired with a Lecia Inverted Confocal SP8 (Johns Hopkins Medicine Ross Imaging Center). Reagents used here are listed in the Key Resources Table.
as §2

[6] = WEB2086 5 mg/kg.d intraperitoneal every two days for 3 weeks vs vehicle

## Cc1nnc2n1-c1sc(CCC(=O)N3CCOCC3)cc1C(c1ccccc1Cl)=NC2 [WEB2086]
[1]
  organoid size: significantly reduced
[2]; WEB2086 at various concentrations vs 0.1% DMSO
  metabolically active cells (WST-1), onset of decrease: began to decrease on day 4
[2]; WEB2086 at various concentrations, day 7 and 10
  inhibitory effect on metabolically active cells (WST-1): time- and dose-dependent inhibitory effect
[3]
  Ki-67 labeling index: significantly reduced
[4]
  tumor formation: completely prevented tumor formation
[5]; [6]
  EAC xenograft growth: significant suppression
  EAC xenograft weight: significant suppression
[5]; WEB2086 treated Eso26 tumor xenografts
  Ki67 expression in tumor xenografts (IHC): downregulated expression
